Data taken from patent publication US20230054039A1, “METHOD OF TREATING HER2-POSITIVE BREAST CANCER” (University of Cincinnati, priority 2021, published 2023).
Peptide text beside a SMILES is read from it. * marks the point of attachment. Cbz = O=C(OCc1ccccc1)*

Experiments:
HeLa cells = assay: Immunoblot of HER2 levels in HeLa cells treated with autophagy inhibitors (FIG. 2I); format: cell-based; conditions: 48 hrs, chloroquine 50 μM, bafilomycin 200 nM, 3-MA 5 mM, spautin-1 10 μM
Description: FIG. 2I. Immuno-blots showing levels of HER2 and GAPDH in HeLa cells treated by HBSS starvation, chloroquine (50 μM), bafilomycin (200 nM), 3-methyladenine (3-MA) (5 mM) and spautin-1 (10 μM) for 48 hrs.
(§1) Western blot: Cells were cultured in 3.5 cm diameter plates (80-90% confluence), washed by PBS buffer, and lysed for 15 min on ice using a RIPA buffer (#C2978, Sigma) containing an anti-protease mix (#PI78415, Thermo Scientific). Protein concentration was measured by BCA assay (#23225, Thermo Scientific). Equal amounts of proteins were subjected to SDS-PAGE and immunoblotting as described previously (Wei et al., 2011).
To further evaluate the role of autophagy in the regulation of HER2 levels, shRNA was used to knockdown expression of another essential autophagy gene, Atg5, in the two lines of HER2 tumor cells (FIGS. 2F and 2G). […] Further, decreased HER2 levels upon FIP200 deletion was due to autophagy blockade, rather than the loss of other activities of FIP200, in HER2-driven mammary tumor cells, which was consistent with the similar phenotypes of cKO and cKI mice.

[1] = system: FIP200 and ATG13 KO HeLa cells; assay: Immunoblot of HER2 in FIP200 KO and ATG13 KO HeLa cells treated with Dynasore (FIG. 13C); format: cell-based; conditions: 20 μM Dynasore for 24 hours
Description: FIG. 13C. Immuno-blots showing levels of HER2 and GAPDH in WT, FIP200 KO and ATG13 KO HeLa cells with or without treatment of 20 μM Dynasore for 24 hours, as indicated.
as §1
To test the above possibility directly, endocytosis of HER2 in HeLa cells with or without autophagy blockade was examined. […] In addition to endocytosis from the plasma membrane, proteins from the Golgi could be transported through endosomes to the lysosome or other compartments. […] Co-expression of mTurquoise2-beta-1,4-galactosyltransferase 1 (which constitutively expresses in the Golgi) in these cells further supported accumulation of HER2 in the Golgi of FIP200 and ATG13 KO HeLa cells (FIG. 4E).

Fip200−/− tumor cells = assay: Immunoblot of HER2 in Fip200-/- tumor cells treated with MG132 (FIG. 3C); format: cell-based, mouse; conditions: MG132 10 μM for 6 hours
Description: FIG. 3C. Immunoblots showing levels of HER2, ubiquitin and GAPDH in Fip200+/+ and Fip200−/− cells treated with DMSO and MG132 (10 μM) for 6 hours.
Cell lines and culture: Primary HER2 tumor cells from FIP200f/f; MMTV-Neu mice (N148 and N418 cells) were isolated and cultured in DMEM/F12 supplemented with 10% FBS, 10 ng/mL EGF, […], and 50 units/mL penicillin-streptomycin. HER2 tumor cells were then infected with recombinant retroviruses encoding CreERT2 and deletion of Fip200 was induced by culturing with 100 nmol/L 4-hydroxytamoxifen (4-OHT). HeLa and MCF-7 cells were obtained from ATCC and maintained in DMEM supplemented with 10% FBS. FIP200 KO and control WT MEF cells have been described previously.
(§2) Western blot: Cells were cultured in 3.5 cm diameter plates (80-90% confluence), washed by PBS buffer, and lysed for 15 min on ice using a RIPA buffer (#C2978, Sigma) containing an anti-protease mix (#PI78415, Thermo Scientific). Protein concentration was measured by BCA assay (#23225, Thermo Scientific). […]
To further investigate regulation of HER2 by autophagy, mRNA levels of HER2 in mammary tumor and HeLa cells with or without autophagy inhibition were examined. […] Next, HER2 protein stability was analyzed and a decreased half-life of HER2 protein in Fip200−/− tumor cells (˜3 hrs) relative to Fip200+/+tumor cells (˜5 hrs) (FIGS. 3A and 3B) was observed. […]

[2] = system: FIP200 and ATG13 KO HeLa cells; assay: Immunoblot of HER2 in FIP200 KO and ATG13 KO HeLa cells treated with MG132 (FIG. 3D); format: cell-based; conditions: MG132 10 μM for 6 hours
Description: FIG. 3D. Immunoblots showing levels of HER2, ubiquitin and GAPDH in WT, FIP200 KO and Atg13 KO HeLa cells treated with DMSO and MG132 (10 μM) for 6 hours.
CRISPR/Cas9-mediated knockout of FIP200 or ATG13 in HeLa and MCF-7 cells and knockdown of Atg5 in HER2 tumor cells: The pX458 plasmid, pSpCas9(BB)-2A-GFP (PX458) was a gift from Feng Zhang, Addgene plasmid # 48138 was used as the cloning backbone for expressing sgFIP200 and sgATG13. The sgRNA sequences of FIP200 and ATG13 are as follows:
as §2
To further investigate regulation of HER2 by autophagy, mRNA levels of HER2 in mammary tumor and HeLa cells with or without autophagy inhibition were examined. […] Next, HER2 protein stability was analyzed and a decreased half-life of HER2 protein in Fip200−/− tumor cells (˜3 hrs) relative to Fip200+/+tumor cells (˜5 hrs) (FIGS. 3A and 3B) was observed. MG132 was used to inhibit proteasome-mediated protein degradation and its effect on HER2 protein levels in autophagy deficient HER2 tumor and HeLa cells was determined.

SMILES: CCN(CC)CCCC(C)Nc1ccnc2cc(Cl)ccc12 (centres unmarked) [chloroquine]
- levels of HER2 (HeLa cells): reduced HER2 levels

SMILES: CO/C1=C\C(C)=C\[C@@H](C)[C@@H](O)[C@@H](C)C/C(C)=C/C=C/[C@H](OC)[C@@H]([C@@H](C)[C@@H](O)[C@H](C)[C@@]2(O)C[C@@H](O)[C@H](C)[C@@H](C(C)C)O2)OC1=O [bafilomycin Al, Bafilomycin A1]
- levels of HER2 (HeLa cells): reduced HER2 levels

SMILES: O=C(N/N=C/c1ccc(O)c(O)c1)c1cc2ccccc2cc1O [Dynasore]
- rescue of decreased level of HER2 [1]: did not rescue the decreased level of HER2

SMILES: CC(C)C[C@@H](C=O)NC(=O)[C@H](CC(C)C)NC(=O)[C@H](CC(C)C)NC(=O)OCc1ccccc1 [MG132] (Cbz-Leu-Leu-Leu-aldehyde)
- reversal of reduced levels of HER2 protein (Fip200−/− tumor cells): did not significantly reverse the reduced levels of HER2 protein
- reversal of reduced levels of HER2 protein [2]: did not significantly reverse the reduced levels of HER2 protein
